Reference: US10265367B2, “Synergistic antibacterial effects of magnolia bark extract and L-arginine, N-α-lauroyl ethyl ester on plaque biofilm” (WM. WRIGLEY JR. COMPANY, priority 2015, dated 2019)

What was measured:
[1] = tested on: salivary bacteria biofilm; experiment: In vitro biofilm assay (salivary bacteria on saliva-treated hydroxyapatite discs); type: cell-based
Method: Biofilms were prepared and tested by a modified method from Guggenheim (Guggenheim B., Gierstein E., Schupbach P, Shapiro S., 2001. “Validation of an in vitro biofilm model of supragingival plaque” Journal Dental Research 80:363-370), which is herein incorporated by reference. Briefly, biofilms were grown by incubating salivary bacteria with saliva-treated hydroxyapatite (HA) discs in sterile 24 well cell culture plates. Using media supplemented with saliva (25% total volume), and transferring discs frequently during the growth phase, encouraged growth of a dental plaque-like biofilm. This was developed for up to 72 hours. The biofilm was exposed to the test compositions (set forth in Table 1) three times a day, for five minutes, on days two and three of the experiment. Biofilm was quantified turbidometrically and by spectrophometric absorption at 600 nm.
The number of CFU for each biofilm was determined as follows. After vigorous shaking, 0.1 ml of the liquid from each biofilm cell was pipetted into 10 ml reverse osmosis (RO) H2O (100× dilution). The 100× dilution was shaken, and 0.1 ml was pipetted into 10 ml RO H2O (10,000× dilution). […] After the growth period, the number of colonies of bacteria growing on each plate were counted. […]
The IC40 of MBE was determined, and was used as a positive control concentration.

[2] = tested on: salivary bacteria; experiment: Inhibition of biofilm formation on saliva-precoated pegs (Calgary device), MBIC/FBIC; type: cell-based
Method: 80 ml of saliva was collected from 4 donors and centrifuged at 3800 rpm to remove food debris. 15 ml supernatant was removed and mixed with an equal volume of 1×PBS. The mixture was then filter sterilized to collect saliva proteins that were used to precoat suspended pegs in the lid of the Calgary device for 3 hours. Meanwhile, the remaining saliva was centrifuged at 10,000 rpm to collect bacteria for biofilm inoculum. After centrifugation, the pellet was resuspended to an OD600 of 0.05 and premixed with defined concentrations of LAE-CF (99% purity, from Vedeqsa), MBE and a combination of the two actives at predetermined ratios. The actives and inoculum were added to the saliva precoated pegs and incubated overnight for at least 16 hours to allow for biofilm formation. Controls included growth (no actives) and media only (no bacteria).
The efficacy of the LAE and MBE synergistic effects are shown in the minimal biofilm inhibitory concentrations (MBIC) and fractional biofilm inhibitory concentration (FBIC) for the two actives. The FBIC was calculated according to the following formula: FBIC=[QA/Qa+QB/Qb] where
QA=the MBIC of component A combined with component B.
Qa=the MBIC of component A alone.
QB=the MBIC of component B combined with component A.
Qb=the MBIC of component B alone. […]

CCCCCCCCCCCC(=O)N[C@@H](CCCNC(=N)N)C(=O)OCC [LAE, L-arginine, N^α-lauroyl ethyl ester]
inhibition at 1000 ppm ([1]; 5 min, 1000 ppm, biofilm exposed 5 min three times a day on days 2 and 3): 82% | percent inhibition compared to the positive control ([1]; positive control = MBE at IC40): not better than the positive control | FBIC (fractional biofilm inhibitory concentration) ([2]; FBIC=QA/Qa+QB/Qb, <1 synergistic): 1 | MBIC (minimal biofilm inhibitory concentration) ([2]; active alone, overnight at least 16 hours): 125 ppm
